In PubChem BioAssay AID330 (DTP/NCI, 2004):
Several values for one entry are separate records, joined by “and”; a condition that tells them apart may be missing. Equal values may be shown once. Inconclusive results and toxic doses are left out. How the source made its calls: active means survival T/C of 150% or more; inactive means T/C below 125% in these data.

System: P388 leukemia ip, CD2F1 mice, survival T/C
Experiment: NCI In Vivo Anticancer Drug Screen. Data for tumor model P388 Leukemia (intraperitoneal) in CD2F1 (CDF1) mice
Settings: endpoint: median survival time, higher = longer survival
Method in brief: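 Mice carrying the transplanted tumor received test compound or vehicle. Survival was recorded in each group, and the value is the treated-group measurement divided by that of the vehicle-treated control group.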

[1] = dose: 50.0 mg/kg/injection, schedule: Q01DX005 (ip), vehicle: Klucel (hydroxypropylcellulose) (HPC)
[2] = dose: 100.0 mg/kg/injection, schedule: Q01DX005 (ip), vehicle: Klucel (hydroxypropylcellulose) (HPC)
[3] = dose: 50.0 mg/kg/injection, schedule: Q01DX005 (ip), vehicle: saline with Tween-80
[4] = dose: 100.0 mg/kg/injection, schedule: Q01DX005 (ip), vehicle: saline with Tween-80
[5] = dose: 200.0 mg/kg/injection, schedule: Q01DX005 (ip), vehicle: saline with Tween-80
[6] = dose: 60.0 mg/kg/injection, schedule: Q01DX005 (ip), vehicle: saline with Tween-80
[7] = dose: 50.0 mg/kg/injection, schedule: Q01DX009 (ip), vehicle: Klucel (hydroxypropylcellulose) (HPC)
[8] = dose: 100.0 mg/kg/injection, schedule: Q01DX009 (ip), vehicle: Klucel (hydroxypropylcellulose) (HPC)
[9] = dose: 200.0 mg/kg/injection, schedule: Q01DX009 (ip), vehicle: Klucel (hydroxypropylcellulose) (HPC)
[10] = dose: 50.0 mg/kg/injection, schedule: Q04DX003 (ip), vehicle: saline with Tween-80
[11] = dose: 100.0 mg/kg/injection, schedule: Q04DX003 (ip), vehicle: saline with Tween-80
[12] = dose: 200.0 mg/kg/injection, schedule: Q04DX003 (ip), vehicle: saline with Tween-80
[13] = dose: 120.0 mg/kg/injection, schedule: Q01DX005 (ip), vehicle: saline with Tween-80
[14] = dose: 240.0 mg/kg/injection, schedule: Q01DX005 (ip), vehicle: saline with Tween-80

Measured: T/C

C/C1=C/C(O)C/C(C)=C\C(O)C(=O)/C=C/C2C(CC1)C2(C)C (stereo not drawn)
inactive: dose: 2.5 mg/kg/injection, schedule: Q01DX005 (ip), vehicle: distilled water + Tween-80 + alcohol 104 % of control | dose: 5.0 mg/kg/injection, schedule: Q01DX005 (ip), vehicle: distilled water + Tween-80 + alcohol 105 % of control | dose: 10.0 mg/kg/injection, schedule: Q01DX005 (ip), vehicle: distilled water + Tween-80 + alcohol 100 % of control | dose: 20.0 mg/kg/injection, schedule: Q01DX005 (ip), vehicle: distilled water + Tween-80 + alcohol 108 % of control

C=C1CC(c2ccc(S(=O)(=O)N3CCOCC3)cc2)OC1=O (stereo not drawn)
inactive: dose: 25.0 mg/kg/injection, schedule: Q01DX005 (ip), vehicle: Klucel (hydroxypropylcellulose) (HPC) 104 % of control | [1] 120 % of control | [2] 113 % of control

Oc1cccnc1CN1CCOCC1
inactive: dose: 50.0 mg/kg/injection, schedule: Q01DX009 (ip), vehicle: saline 101 % of control | dose: 100.0 mg/kg/injection, schedule: Q01DX009 (ip), vehicle: saline 93 % of control | dose: 200.0 mg/kg/injection, schedule: Q01DX009 (ip), vehicle: saline 101 % of control | dose: 400.0 mg/kg/injection, schedule: Q01DX009 (ip), vehicle: saline 101 % of control

COC1=CC(=O)c2ncccc2C1=O
inactive: dose: 1.56 mg/kg/injection, schedule: Q01DX009 (ip), vehicle: DMSO 101 % of control | dose: 3.13 mg/kg/injection, schedule: Q01DX009 (ip), vehicle: DMSO 100 % of control | dose: 6.25 mg/kg/injection, schedule: Q01DX009 (ip), vehicle: DMSO 100 % of control | dose: 12.5 mg/kg/injection, schedule: Q01DX009 (ip), vehicle: DMSO 111 % of control and 96 % of control | dose: 25.0 mg/kg/injection, schedule: Q01DX009 (ip), vehicle: DMSO 101 % of control and 113 % of control

CCCCCCCCCCCCCCCCCCOC(=O)CCN
inactive: [3] 101 % of control | [4] 109 % of control | [5] 113 % of control

COC(=N)CCCCC(=N)OC
inactive: dose: 50.0 mg/kg/injection, schedule: Q01DX005 (ip), vehicle: saline 92 % of control | dose: 100.0 mg/kg/injection, schedule: Q01DX005 (ip), vehicle: saline 97 % of control | dose: 200.0 mg/kg/injection, schedule: Q01DX005 (ip), vehicle: saline 101 % of control

Cc1ncc(CO)c2c1OC(C)(C)OC2
inactive: [3] 100 % of control | [4] 107 % of control | [5] 100 % of control

CN(C)c1ccc(/C=N/NC(=O)COc2ccccc2)cc1
inactive: dose: 15.0 mg/kg/injection, schedule: Q01DX005 (ip), vehicle: saline with Tween-80 98 % of control | dose: 30.0 mg/kg/injection, schedule: Q01DX005 (ip), vehicle: saline with Tween-80 88 % of control | [6] 88 % of control

C1=Cc2cc(CN3CCOCC3)ccc2Nc2ccccc21
inactive: dose: 60.0 mg/kg/injection, schedule: Q01DX005 (ip), vehicle: Klucel (hydroxypropylcellulose) (HPC) 99 % of control | dose: 120.0 mg/kg/injection, schedule: Q01DX005 (ip), vehicle: Klucel (hydroxypropylcellulose) (HPC) 89 % of control

CC(C)NS(=O)(=O)OCC(O)(CC(Cl)(Cl)Cl)c1ccccc1 (stereo not drawn)
inactive: dose: 50.0 mg/kg/injection, schedule: Q01DX009 (ip), vehicle: saline with Tween-80 105 % of control | dose: 100.0 mg/kg/injection, schedule: Q01DX009 (ip), vehicle: saline with Tween-80 109 % of control and 112 % of control | dose: 200.0 mg/kg/injection, schedule: Q01DX009 (ip), vehicle: saline with Tween-80 105 % of control

CC(O)C(O)C(O)C(C=O)OC1OC(C)C(O)C(O)C1O (stereo not drawn)
inactive: dose: 2.5 mg/kg/injection, schedule: Q01DX005 (ip), vehicle: saline + alcohol 99 % of control | dose: 5.0 mg/kg/injection, schedule: Q01DX005 (ip), vehicle: saline + alcohol 96 % of control | dose: 10.0 mg/kg/injection, schedule: Q01DX005 (ip), vehicle: saline + alcohol 110 % of control | dose: 20.0 mg/kg/injection, schedule: Q01DX005 (ip), vehicle: saline + alcohol 91 % of control

CCN1CSC(=S)N(Cc2ccccc2)C1
inactive: [7] 99 % of control | [8] 101 % of control | [9] 101 % of control

CN(CCO)c1ccc([N+](=O)[O-])c2nonc12
inactive: dose: 25.0 mg/kg/injection, schedule: Q04DX002 (ip), vehicle: saline 99 % of control and 103 % of control | dose: 50.0 mg/kg/injection, schedule: Q04DX002 (ip), vehicle: saline 99 % of control (2×) and 115 % of control | dose: 100.0 mg/kg/injection, schedule: Q04DX002 (ip), vehicle: saline 100 % of control and 101 % of control

Cc1c(NS(=O)(=O)c2ccccc2)c(C)c(NS(=O)(=O)c2ccccc2)c(C)c1NS(=O)(=O)c1ccccc1
inactive: [10] 100 % of control | [11] 90 % of control | [12] 90 % of control

N#C/C(=C\C=C\c1ccccc1)C(N)=O
inactive: [10] 104 % of control | [11] 104 % of control | [12] 109 % of control

CCCCCCCCCCCC[N+](C)([O-])CCCCCC[N+](C)([O-])CCCCCCCCCCCC (stereo not drawn)
inactive: dose: 12.5 mg/kg/injection, schedule: Q01DX009 (ip), vehicle: Klucel (hydroxypropylcellulose) (HPC) 96 % of control | dose: 25.0 mg/kg/injection, schedule: Q01DX009 (ip), vehicle: Klucel (hydroxypropylcellulose) (HPC) 95 % of control | [7] 100 % of control and 95 % of control

CCOC(=O)C(Cc1ccc(O)cc1)NC(=O)C1Cc2c([nH]c3ccccc23)C=N1 (stereo not drawn)
inactive: [6] 100 % of control | [13] 102 % of control | [14] 106 % of control

Cc1cc2[nH]c3c(C#N)c(O)c(C)c(=O)n3c2cc1C
inactive: [6] 100 % of control | [13] 100 % of control | [14] 100 % of control

Nc1c2cc3c(cc2c[n+]2ccc4ccccc4c12)OCO3
inactive: dose: 6.25 mg/kg/injection, schedule: Q04DX003 (ip), vehicle: distilled water + Tween-80 111 % of control and 113 % of control and 115 % of control | dose: 12.5 mg/kg/injection, schedule: Q04DX003 (ip), vehicle: distilled water + Tween-80 113 % of control and 116 % of control and 120 % of control | dose: 25.0 mg/kg/injection, schedule: Q04DX003 (ip), vehicle: distilled water + Tween-80 111 % of control (2×) and 123 % of control

CC1(C)C(c2ccccc2)C1(Cl)Cl (stereo not drawn)
inactive: dose: 100.0 mg/kg/injection, schedule: Q04DX002 (ip), vehicle: saline with Tween-80 99 % of control | dose: 200.0 mg/kg/injection, schedule: Q04DX002 (ip), vehicle: saline with Tween-80 93 % of control

O=C(CCN1CCCCC1)Nc1ccc(F)cc1F
inactive: [3] 97 % of control | [4] 99 % of control | [5] 100 % of control

Cc1ccnc(NC2=CC(=O)C(=O)c3ccccc32)c1
inactive: dose: 37.5 mg/kg/injection, schedule: Q01DX009 (ip), vehicle: saline sonified 122 % of control

Cc1ccc(N=Cc2cccs2)cc1Cl
inactive: [7] 94 % of control | [8] 113 % of control | [9] 106 % of control

COC(=O)/C(C#N)=C/c1cccnc1
inactive: [1] 101 % of control | [2] 101 % of control | dose: 200.0 mg/kg/injection, schedule: Q01DX005 (ip), vehicle: Klucel (hydroxypropylcellulose) (HPC) 107 % of control
